Laboratory results from patent US20220260566A1, “IMMUNITY MECHANISM AND THERAPEUTIC DRUG FOR GASTROINTESTINAL DISEASES” (GUANGZHOU WOMEN AND CHILDREN'S MEDICAL CENTER, priority 2018, published 2022).
“Also recorded” adds a separate entry of the source.

How the values were obtained:
[1] = test system: CD39; experiment: Immunofluorescence of colonic mucosa before and after treatment: CD39 expression; assay type: in vivo, human
Experimental: (§1) Use formalin-fixed and paraffin-embedded paraffin blocks to prepare 3 um tissue sections. After deparaffinization, blocking antibodies (PBS containing 5% normal donkey or goat serum and 0.3% Triton X-100) are incubated for 1 hour at room temperature, and washed with PBS Then incubate the primary antibody (CD39, CD41, pT71-ATF2 or pS133-CREB) overnight in a 4 C dark humidified box. Then, after washing with PBS, incubate the secondary antibodies (goat anti-mouse IgG1 combined with AF488 and goat anti-rabbit IgG combined with Cy3) for 1 hour at room temperature, and then incubate the anti-quencher containing DAPI. Then, use the Lycra automatic inverted fluorescence microscope to observe and take pictures (20×0.75), and use the Lycra X image analysis software to process the brightness, luminosity, contrast and color balance of the image to restore the image as much as possible. For each observation condition, 4-5 areas in each mucosal section were randomly selected for observation, and the CD41 aggregation (fluorescence diameter greater than 7 μm) was measured and counted using the card X image analysis software.

[2] = test system: CD68+ macrophages and TNF-α in the colonic mucosa; experiment: Immunofluorescence of colonic mucosa before and after treatment: CD68+ macrophages, TNF-α, PDE4B; assay type: in vivo, human; details: for macrophage invasion in colonic mucosa: children with colitis or IBD, after vs before methylprednisolone or anti-TNF-α, FIG. 6C; for PDE4B: summary of immunological results after treatment
[3] = test system: children with colitis or IBD; experiment: Children with colitis or IBD treated with methylprednisolone or anti-TNF-α antibody: colonoscopy and clinical status; assay type: in vivo, human
[4] = test system: children with colitis; experiment: Clinical trial of dipyridamole in children with colitis (Table 5, 23 patients); assay type: in vivo, human
Excerpt: In the following, it is investigated whether the cAMP activation pathway regulates CD39 expression in T cells. […] The clinical trial was approved by the Ethical Review Committee of Guangzhou Women and Children's Medical Center and registered in the China Clinical Trial Registration Center (ChiCTR1800019803). All patients or family members signed an informed consent form.

[5] = test system: subjects with colitis confirmed by endoscopy and subjects with undefined IBD (IBDU); experiment: Clinical trial of dipyridamole in 9 children with endoscopy-confirmed colitis or undefined IBD (Table 6); assay type: in vivo, human
Excerpt: The inventors also conducted clinical trial studies in subjects with colitis confirmed by endoscopy and subjects with undefined IBD (IBDU) (Table 6).
In Table 6, PLT stands for platelet count, HGB stands for hemoglobin, and ALB stands for albumin.

[6] = test system: platelet aggregation (CD41 clusters) in the colonic mucosa; experiment: Immunofluorescence of colonic mucosa before and after treatment: platelet aggregation (CD41 clusters); assay type: in vivo, human; details: children, after vs before dipyridamole treatment
Experimental: as §1

[7] = test system: activated ATF2 and CREB; experiment: Immunofluorescence of colonic mucosa: activated ATF2 and CREB co-expressed with CD39; assay type: in vivo, human; details: children, after vs before dipyridamole treatment
Experimental: [Worded in the source for another target; this target is reported under the same test.] as §1, with “[…]-ATF2” for “pT71-ATF2”, “[…]-CREB)” for “pS133-CREB)”, “Lycra X” left out

[8] = test system: HEK 293T cells stably transfected with the cAMP reporter gene GloSensor-22F cAMP plasmid; experiment: cAMP reporter assay (GloSensor-22F cAMP plasmid); assay type: cell-based; details: HEK 293T reporter cells; 3 independent experiments; forskolin as positive control
Excerpt: FIG. 4: Highly inflammatory macrophage and dendritic cell (DC) infiltration in colitis and IBD patients compared to control subjects. […] The red and navy blue dots represent individual genes that pass the P value (≤0.05) and log 2 (Fold Change) (red, ≥1; navy blue, ≤−1) threshold. […] Forskolin, which increases the concentration of cAMP by activating adenylate cyclase, was used as a positive control. […] Colonic mucosa sections were stained with anti-CD68 to mark macrophages, and stained with NLRP3 and ASC for inflammasome. […] The P value was calculated using the Mann-Whitney U test, *, P<0.05****, P<0.0001. (D) Heat map showing the relative expression of colitis/IBD risk genes in myeloid cells.

[9] = test system: CD39 expression in CD8+ T cells; experiment: CD39 expression during CD8+ T cell activation; assay type: cell-based; details: dose-dependent manner
[10] = test system: TNF-α in monocytes and macrophages; experiment: TNF-α expression in monocytes and macrophages in vitro; assay type: cell-based; details: in vitro and in vivo
[11] = test system: DSS-induced acute colitis; experiment: DSS-induced acute colitis model; assay type: in vivo, C57BL/6J mice
Experimental: Male C57BL/6J mice (20-22 g), six to eight weeks old, were purchased from Guangzhou University of Traditional Chinese Medicine. The mice were given regular food and water before the experiment. Weight-matched mice were used in all studies Animal research was approved by the Animal Care and Utilization Committee of Guangzhou Medical University (permit number: 2019-471) and was conducted in accordance with institutional guidelines.
The control mice were given regular food and water. The mice were monitored daily and if the weight loss exceeded 20%, they were euthanized.
For hematoxylin and eosin (H&E) staining, the colon was fixed in 4% paraformaldehyde (PFA) for 24 hours and embedded in paraffin. Prepare sections (3 μm) and deparaffinize before staining
To detect platelet aggregation in colon slices, the tissue was fixed in 4% PFA for 24 hours, cryoprotected in 30% sucrose for 48 hours, and then embedded in an Optimal Cutting Temperature (O.C.T.) compound. The frozen sections (5 μm) were washed, blocked with 10% goat serum, and incubated with anti-mouse CD41-FITC (133903, BioLegend, CA, USA) at 4° C. overnight.
After washing with PBS to remove unbound antibodies, the sections were fixed with […] anti-fading fixation medium (H-1200, Vector Laboratories, CA, USA) with DAPI for nuclear staining The immunofluorescence staining and image processing were performed as described above. Platelet aggregates are defined as CD41+ clusters (diameter >7 μm). Leica X image analysis software (Leica, Hamburg, Germany) and ImageJ software (National Institutes of Health, Maryland, USA) were used to count and analyze the number of CD41+ clusters per square millimeter. For each colon section, platelet aggregation in 5 randomly selected areas was recorded.
In order to analyze the expression of cytokines, the residual mesenteric fat in the colon was removed, weighed and dispersed in a single cell suspension with 1 mL of PBS. After centrifugation at 1000×g for 10 minutes at 4° C., the supernatant was taken to determine the concentration of TNF-α, IL-1β and IL-6 by ELISA.

[12] = test system: CD39 in colonic intraepithelial T cells; experiment: CD39 expression of immune cells in DSS colitis model (flow cytometry); assay type: in vivo, mice
Experimental: From the second day of treatment, DSS was added to drinking water (2.5%) for 7 days. The control mice were given regular food and water. In order to analyze colon immune cells, the present invention harvests the colon and removes excess fat. After washing with ice-cold PBS, the colon was cut into pieces approximately 0.3-0.5 cm in length. After gentle rotation in the dissociation solution (HBSS without Ca/Mg, with 5 mM EDTA and 2% FBS) at 37° C. for 40 minutes, the intraepithelial lymphocytes (IEL) were pelleted, washed and resuspended in staining buffer (PBS 2% FBS). The remaining undigested colon tissue samples were gently rotated in the digestion solution (RPMI1640 containing 2% FBS, 2 mg/mL collagenase IV, 0.4 U/mL dispase and 1 μg/mL DNase) at 37° C. for 45 minutes. Pellet lamina propria lymphocytes (LPL), wash and resuspend in staining buffer. T cell plates (CD45-APC-Cy7, CD3-BV711, […]-Cy7, CD8-BV785, γδT-BV421 and CD4-APC) or myeloid plates (MHC II-BV550, CD11b-BV510 and CD39-PE-Cy7) were stained on ice for 30 minutes, and then analyzed on a FACSAria SORP flow cytometer (BD Science).

[13] = children, after vs before dipyridamole (n=7), FIG. 7H
[14] = dipyridamole 10 mg/kg twice a day vs DSS alone, 3% DSS
[15] = dipyridamole 10 mg/kg vs DSS alone

“anti-TNF-α: Anti-TNF-α drug (Infliximab), anti-TNF-α antibody biologic used to treat colitis and IBD” was tested, and the “expression of CD39 (CD39 IET) in colonic mucosa” value ([1]; children with colitis or IBD, after vs before methylprednisolone (n=5) or anti-TNF-α (n=6), FIG. 6C) was “no effect”, the “macrophage invasion in colonic mucosa” value [2] was “no effect” and the “appearance of the colon (colonoscopy)” value ([3]; after vs before treatment, FIG. 6B) was “improved”. The “clinical status / clinical symptoms” value ([3]; patients with inflammatory bowel disease, for methylprednisolone some patients only) was “improved”.

With `OCCN(CCO)c1nc(N2CCCCC2)c2nc(N(CCO)CCO)nc(N3CCCCC3)c2n1` [dipyridamole] the “Severity score, Post-treatment, median” value ([4]; after dipyridamole 3-5 mg/kg/day, treatment duration median 4 (2-12) weeks, 23 children, range 0-5, P < 0.0001 vs pre-treatment) was 1, the “Platelet counts, Post-treatment, median” value ([4]; after dipyridamole 3-5 mg/kg/day, 23 children, range 217-497, reference range 140-440, P = 0.0001 vs pre-treatment) was 296 10^9/L and the “clinical severity score after treatment” value ([4]; after vs before dipyridamole (FIG. 3d)) was “significantly reduced”. The “colon lining (colonoscopy appearance)” value ([4]; after vs before dipyridamole (FIG. 3d, 3e)) was “significantly improved”, the “Severity score, Pre-treatment, median” value ([4]; baseline before dipyridamole, 23 children, range 4-14, scoring criteria of Table 4) was 9 and the “Platelet counts, Pre-treatment, median” value ([4]; baseline before dipyridamole, 23 children, range 235-790, reference range 140-440) was 370 10^9/L. For the same molecule, the adverse reactions ([4]; children with colitis, dipyridamole 3-5 mg/kg/day) was “no reports of adverse reactions”, the “clinical, endoscopic and histological severity scores” value ([5]; after vs before dipyridamole (FIG. 7E, Table 6)) was “significantly improved” and the adverse reactions ([5]; dipyridamole 3-5 mg/kg/day for 8 to 12 weeks) was “No obvious adverse reactions”. The “expression of CD39 in CD8 and CD4 T cells and macrophages of colonic mucosa” value ([1]; children, after vs before dipyridamole treatment) was “increase”, the “platelet aggregation in the colonic mucosa (CD41 clusters)” value [6] was “significantly reduced” and the “TNF-α expression in colonic mucosa” value [2, 13] was “significantly reduced”. The “macrophage infiltration in colonic mucosa” value [2, 13] was “significantly reduced”, the PDE4B [2] was “inhibited” and the “co-localized activated transcription factors ATF2 and CREB with CD39 in colonic mucosa” value [7] was “increased; also recorded: enhanced”. For the same molecule, the “cytoplasmic cAMP concentration” value [8] was “significantly increase”, the “CD39 expression during CD8+ T cell activation” value [9] was “significantly increased” and the “expression of TNF-α in monocytes and macrophages” value [10] was “inhibit”. For the same molecule, the body weight [11, 14] was “significantly increased”, the colon length [11, 14] was “significantly increased” and the “epithelial integrity and structure (HE stained colon sections)” value [11, 15] was “improved”. The “platelet aggregation in colonic mucosa (CD41+ clusters)” value [11, 15] was “reduced”, the “TNF-α expression in colon mucosa” value ([11]; dipyridamole vs DSS alone, ELISA) was “reduced” and the “CD39 expression in colonic epithelial CD4, CD8 and γδT cells” value ([12]; dipyridamole 5 mg/kg or 50 mg/kg for 8 days, 2.5% DSS, dose-dependent manner) was “significantly increased”. For the same molecule, the “expression of CD39 in CD4, CD8 and γδT cells” value ([12]; intraperitoneal injection of dipyridamole at 50 mg/kg) was “significantly increased”.

In the case of `C[C@H]1C[C@@H]2[C@H]([C@@H](O)C[C@@]3(C)[C@H]2CC[C@]3(O)C(=O)CO)[C@@]2(C)C=CC(=O)C=C12` [methylprednisolone], the “macrophage invasion in colonic mucosa” value [2] is reported as “no effect” and the PDE4B [2] is reported as “no effect”.
